Several values for one entry are separate records, joined by “and”; a condition that tells them apart may be missing. Equal entries are not always repeated.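 Following 48 hours of exposure in 96-well plates, responses at five concentrations were used to interpolate endpoints linearly. GI50 = concentration required for 50% inhibition of growth. At the TGI there is no net growth.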
What was measured:
Test in all cases: DTP human tumour cell line panel, 48 h
786-0 renal = test system: 786-0 renal
A498 renal = test system: A498 renal
A549 NSCLC = test system: A549 NSCLC
ACHN renal = test system: ACHN renal
BT-549 breast = test system: BT-549 breast
CAKI-1 renal = test system: CAKI-1 renal
CCRF-CEM leukemia = test system: CCRF-CEM leukemia
COLO 205 colon = test system: COLO 205 colon
DU-145 prostate = test system: DU-145 prostate
EKVX NSCLC = test system: EKVX NSCLC
HCC-2998 colon = test system: HCC-2998 colon
HCT-116 colon = test system: HCT-116 colon
HCT-15 colon = test system: HCT-15 colon
HL-60(TB) leukemia = test system: HL-60(TB) leukemia
HOP-62 NSCLC = test system: HOP-62 NSCLC
HOP-92 NSCLC = test system: HOP-92 NSCLC
HS 578T breast = test system: HS 578T breast
HT29 colon = test system: HT29 colon
IGROV1 ovarian = test system: IGROV1 ovarian
K-562 leukemia = test system: K-562 leukemia
KM12 colon = test system: KM12 colon
LOX IMVI melanoma = test system: LOX IMVI melanoma
M14 melanoma = test system: M14 melanoma
MALME-3M melanoma = test system: MALME-3M melanoma
MCF7 breast = test system: MCF7 breast
MDA-MB-231 breast = test system: MDA-MB-231 breast
MDA-MB-435 = test system: MDA-MB-435
MDA-MB-468 breast = test system: MDA-MB-468 breast
MOLT-4 leukemia = test system: MOLT-4 leukemia
NCI-H226 lung = test system: NCI-H226 lung
NCI-H23 lung = test system: NCI-H23 lung
NCI-H460 lung = test system: NCI-H460 lung
NCI-H522 lung = test system: NCI-H522 lung
NCI/ADR-RES ovarian = test system: NCI/ADR-RES ovarian
OVCAR-3 ovarian = test system: OVCAR-3 ovarian
OVCAR-4 ovarian = test system: OVCAR-4 ovarian
OVCAR-5 ovarian = test system: OVCAR-5 ovarian
OVCAR-8 ovarian = test system: OVCAR-8 ovarian
PC-3 prostate = test system: PC-3 prostate
RPMI-8226 leukemia = test system: RPMI-8226 leukemia
RXF 393 renal = test system: RXF 393 renal
SF-268 CNS = test system: SF-268 CNS
SF-295 CNS = test system: SF-295 CNS
SF-539 CNS = test system: SF-539 CNS
SK-MEL-2 melanoma = test system: SK-MEL-2 melanoma
SK-MEL-28 melanoma = test system: SK-MEL-28 melanoma
SK-MEL-5 melanoma = test system: SK-MEL-5 melanoma
SK-OV-3 ovarian = test system: SK-OV-3 ovarian
SN12C renal = test system: SN12C renal
SNB-19 CNS = test system: SNB-19 CNS
SNB-75 CNS = test system: SNB-75 CNS
SR leukemia = test system: SR leukemia
SW-620 colon = test system: SW-620 colon
T-47D breast = test system: T-47D breast
TK-10 renal = test system: TK-10 renal
U251 CNS = test system: U251 CNS
UACC-257 melanoma = test system: UACC-257 melanoma
UACC-62 melanoma = test system: UACC-62 melanoma
UO-31 renal = test system: UO-31 renal

O=C(c1cc2cc(OCCCN3CCC3)ccc2[nH]1)N1C[C@@H](CCl)c2c1cc(OCc1ccccc1)c1ccccc21
GI50 (786-0 renal): 293 nM and 266 nM | TGI (786-0 renal): 913 nM and 1710 nM | GI50 (A498 renal): 235 nM | TGI (A498 renal): 633 nM | GI50 (A549 NSCLC): 157 nM and 161 nM | TGI (A549 NSCLC): 626 nM and 2540 nM | GI50 (ACHN renal): 78.5 nM and 34.6 nM | TGI (ACHN renal): 248 nM and 96.7 nM | GI50 (BT-549 breast): 384 nM and 530 nM | TGI (BT-549 breast): 1720 nM and 2190 nM | GI50 (CAKI-1 renal): 289 nM and 193 nM | TGI (CAKI-1 renal): 1500 nM and 1680 nM | GI50 (CCRF-CEM leukemia): 845 nM and 408 nM | TGI (CCRF-CEM leukemia): 7750 nM and 17500 nM | GI50 (COLO 205 colon): 629 nM and 280 nM | TGI (COLO 205 colon): 1990 nM and 644 nM | GI50 (DU-145 prostate): 254 nM and 82 nM | TGI (DU-145 prostate): 1250 nM and 2920 nM | GI50 (EKVX NSCLC): 271 nM and 371 nM | TGI (EKVX NSCLC): 1370 nM and 956 nM | GI50 (HCC-2998 colon): 255 nM and 319 nM | TGI (HCC-2998 colon): 1230 nM and 660 nM | GI50 (HCT-116 colon): 147 nM and 637 nM | TGI (HCT-116 colon): 443 nM and 2460 nM | GI50 (HCT-15 colon): 171 nM and 134 nM | TGI (HCT-15 colon): 838 nM and 787 nM | GI50 (HL-60(TB) leukemia): 1220 nM and 442 nM | TGI (HL-60(TB) leukemia): 3560 nM and 4050 nM | GI50 (HOP-62 NSCLC): 214 nM and 139 nM | TGI (HOP-62 NSCLC): 694 nM and 647 nM | GI50 (HOP-92 NSCLC): 1160 nM and 504 nM | TGI (HOP-92 NSCLC): 3280 nM and 1830 nM | GI50 (HS 578T breast): 1250 nM and 746 nM | TGI (HS 578T breast): 3980 nM and 5990 nM | GI50 (HT29 colon): 285 nM and 273 nM | TGI (HT29 colon): 1350 nM and 2000 nM | GI50 (IGROV1 ovarian): 310 nM and 189 nM | TGI (IGROV1 ovarian): 1470 nM and 1330 nM | GI50 (K-562 leukemia): 302 nM and 251 nM | TGI (K-562 leukemia): 19800 nM | GI50 (KM12 colon): 731 nM and 813 nM | TGI (KM12 colon): 2220 nM and 10100 nM | GI50 (LOX IMVI melanoma): 132 nM and 56.4 nM | TGI (LOX IMVI melanoma): 427 nM and 451 nM | GI50 (M14 melanoma): 283 nM and 212 nM | TGI (M14 melanoma): 1210 nM and 653 nM | GI50 (MALME-3M melanoma): 481 nM and 276 nM | TGI (MALME-3M melanoma): 1790 nM and 557 nM | GI50 (MCF7 breast): 10.5 nM and 3.22 nM | TGI (MCF7 breast): 324 nM and 851 nM | GI50 (MDA-MB-231 breast): 691 nM and 544 nM | TGI (MDA-MB-231 breast): 2100 nM and 1360 nM | GI50 (MDA-MB-435): 1050 nM and 331 nM | TGI (MDA-MB-435): 2270 nM and 739 nM | GI50 (MDA-MB-468 breast): 43.8 nM | TGI (MDA-MB-468 breast): 130 nM | GI50 (MOLT-4 leukemia): 339 nM and 272 nM | TGI (MOLT-4 leukemia): 4560 nM and 3870 nM | GI50 (NCI-H226 lung): 1210 nM and 211 nM | TGI (NCI-H226 lung): 4340 nM and 631 nM | GI50 (NCI-H23 lung): 186 nM and 73 nM | TGI (NCI-H23 lung): 619 nM and 318 nM | GI50 (NCI-H460 lung): 121 nM and 17.1 nM | TGI (NCI-H460 lung): 469 nM and 1120 nM | GI50 (NCI-H522 lung): 1230 nM and 384 nM | TGI (NCI-H522 lung): 2870 nM and 929 nM | GI50 (NCI/ADR-RES ovarian): 252 nM | TGI (NCI/ADR-RES ovarian): 1400 nM | GI50 (OVCAR-3 ovarian): 1130 nM and 497 nM | TGI (OVCAR-3 ovarian): 2620 nM and 1610 nM | GI50 (OVCAR-4 ovarian): 1130 nM and 536 nM | TGI (OVCAR-4 ovarian): 3010 nM and 1690 nM | GI50 (OVCAR-5 ovarian): 302 nM and 345 nM | TGI (OVCAR-5 ovarian): 1040 nM and 1060 nM | GI50 (OVCAR-8 ovarian): 274 nM and 242 nM | TGI (OVCAR-8 ovarian): 1440 nM and 1530 nM | GI50 (PC-3 prostate): 294 nM and 367 nM | TGI (PC-3 prostate): 2630 nM and 4600 nM | GI50 (RPMI-8226 leukemia): 941 nM and 496 nM | TGI (RPMI-8226 leukemia): 9530 nM and 9500 nM | GI50 (RXF 393 renal): 362 nM and 234 nM | TGI (RXF 393 renal): 1630 nM and 509 nM | GI50 (SF-268 CNS): 437 nM and 332 nM | TGI (SF-268 CNS): 2420 nM and 2040 nM | GI50 (SF-295 CNS): 154 nM and 46.1 nM | TGI (SF-295 CNS): 447 nM and 230 nM | GI50 (SF-539 CNS): 225 nM and 295 nM | TGI (SF-539 CNS): 1000 nM and 663 nM | GI50 (SK-MEL-2 melanoma): 1090 nM and 374 nM | TGI (SK-MEL-2 melanoma): 2320 nM and 659 nM | GI50 (SK-MEL-28 melanoma): 507 nM and 329 nM | TGI (SK-MEL-28 melanoma): 1800 nM and 749 nM | GI50 (SK-MEL-5 melanoma): 322 nM and 272 nM | TGI (SK-MEL-5 melanoma): 1300 nM and 537 nM | GI50 (SK-OV-3 ovarian): 401 nM and 453 nM | TGI (SK-OV-3 ovarian): 1640 nM and 1720 nM | GI50 (SN12C renal): 345 nM and 357 nM | TGI (SN12C renal): 1500 nM and 2110 nM | GI50 (SNB-19 CNS): 687 nM and 333 nM | TGI (SNB-19 CNS): 2330 nM and 2400 nM | GI50 (SNB-75 CNS): 1020 nM | TGI (SNB-75 CNS): 2210 nM | GI50 (SR leukemia): 97.4 nM and 43.9 nM | TGI (SR leukemia): 5010 nM | GI50 (SW-620 colon): 234 nM and 258 nM | TGI (SW-620 colon): 1560 nM and 1280 nM | GI50 (T-47D breast): 375 nM and 202 nM | TGI (T-47D breast): 1690 nM and 1040 nM | GI50 (TK-10 renal): 1530 nM and 562 nM | TGI (TK-10 renal): 3000 nM and 1420 nM | GI50 (U251 CNS): 247 nM and 61.2 nM | TGI (U251 CNS): 1030 nM and 2390 nM | GI50 (UACC-257 melanoma): 792 nM | TGI (UACC-257 melanoma): 2300 nM | GI50 (UACC-62 melanoma): 145 nM and 62 nM | TGI (UACC-62 melanoma): 481 nM and 325 nM | GI50 (UO-31 renal): 171 nM and 264 nM | TGI (UO-31 renal): 449 nM and 681 nM

From PubChem BioAssay (NCI)
